“Also recorded” adds a separate entry of the source. Values belong to the molecule of their own block, whether it stands above or below them.
Legend:
[1] = ITC of phospholipid liposomes with calcium; format: binding; conditions: liposome with POPC 80:20, 25° C., unlike POPS
Procedure: Particularly, a protein solution was prepared by suspending a protein in 10 mM HEPES (pH 7.0). Phospholipid related ligand was titrated in the protein solution at 25° C. by using iTC200 micro calorimetry system (MicroCal Inc., USA), and the generated graph was corrected using Origin software (MicroCal Inc., USA). At this time, the phospholipid related ligand was prepared in the form of liposome by mixing POPC (1-palmitoyl-2-oleoyl-sn-glycero-3-phosphocholin) chloroform solution and POPS (1-palmitoyl-2-oleoyl-sn-glycero-3-phosphoserine), PI(3,4)P2 (1,2-dipalmotoyl-sn-glycero-3-phosphatidylinositol-3,4-[…]), PI(4,5)P2 (1,2-dipalmotoyl-sn-glycero-3-phosphatidylinositol-4,5-trisphosphate) or PI(3,4,5)P3 (1,2-dipalmotoyl-sn-glycero-3-phosphatidylinositol-3,4,5-trisphosphate) at the molar ratio of 80:20. The organic solvent was eliminated. The organic solvent was removed and a single layer lamellar was produced in HEPES (pH 7.0) using phospholipids.

[2] = test system: Akt protein; experiment: Western blotting of Akt protein phosphorylation in insulin-treated HepG2 cells; format: cell-based, human; conditions: PMA 0, 10, 50 or 100 nM or ionomycin 0, 1, 5, 10 or 20 μM, 100 nM insulin, dose-dependent
Procedure: First, male C57BL/6 mice at 8 weeks were divided into the fasted group wherein the mice were fasted for 16 hours and the refed group wherein the mice were fasted for 16 hours and then fed for 4 hours. Each group was sub-divided into the high fat diet group (HFD) and the normal diet group (chow). The liver cells were extracted from the raised mice by the same manner and under the same conditions as described in Example 1. The extracted liver cells were lysed in a lysis buffer containing phosphatase (Sigma-Aldrich, USA) and protease inhibitor (Sigma-Aldrich, USA). Proteins extracted from 2 to 3 mg of the liver tissue were homogenized by using a tissue homogenizer (TissuLyser, Qiagen, USA) for 1.5 minutes at a frequency of 1/30 sec. The homogenized lysate was centrifuged at 12,000 rpm for 15 minutes and the supernatant was obtained. The amount of the extracted protein was quantified by using a protein assay kit (Bio-Rad Laboratories, USA), and at this time BSA was used as a standard sample. 3 mg of the protein was mixed with 6× loading buffer, followed by electrophoresis using 10% SDS-PAGE gel. The electrophoresed protein was transferred onto a polyvinylidene fluoride (PVDF) membrane by using a transfer buffer at 4° C. with 120 V for 1.5 hours. The PVDF membrane on which the protein was transferred was pretreated with a blocking buffer prepared by mixing 5% skim milk with TBS buffer (TBS-T, pH 7.6) supplemented with Tween 20 for 30 minutes, and the membrane was washed with TBS-T. The washed membrane was added with the antibody against Akt (Cell Signaling Technology, USA), Akt(T308) (Cell Signaling Technology, USA), Akt(S473) (Cell Signaling Technology, USA), FOXO3A (Cell Signaling Technology, USA), FOXO3A(S253) (Cell Signaling Technology, USA), GSK-3β (Cell Signaling Technology, USA) or GSK-3β(S9) (Cell Signaling Technology, USA) protein as a primary antibody, followed by reaction at 4° C. for 12 hours. At this time, the antibody against actin (Santa Cruz Biotechnology, USA) protein was used for the control group. Upon completion of the reaction, the secondary antibody corresponding to the primary antibody was added thereto, followed by reaction at room temperature for 30 minutes. The PVDF membrane was washed with TBS-T buffer three times. The washed PVDF membrane was added with ECL solution (Thermo Scientific, USA), followed by image observation.
To investigate the changes in insulin sensitivity when insulin was added to the fatty liver cell model constructed in vitro, the phosphorylations of those proteins that were involved in insulin signal transduction were examined. PA was added to the human HepG2 cells prepared in Example 3, followed by reaction for 24 hours. […]

[3] = test system: Akt protein; experiment: Western blot of Akt activity with C2-Akt fusion protein and PI3K co-treated with PTEN or SHIP2; format: cell-based; conditions: cells with C2-Akt fusion protein and PI3K vectors co-treated with PTEN or SHIP2
Procedure: Particularly, the experiment was performed by the same manner under the same conditions as described in Example 2 except that the vector expressing the C2-Akt fusion protein and the vector expressing PI3K protein were co-treated with PTEN or SHIP2 and the antibody against Akt (Cell Signaling Technology, USA), Akt(T308) (Cell Signaling Technology, USA), Akt(S473) (Cell Signaling Technology, USA), PI3K (Cell Signaling Technology, USA), PTEN (Cell Signaling Technology, USA) or SHIP2 (Upstate Biotechnology, USA) protein was used as the primary antibody.

[4] = target: T1, PH domain of Akt protein (Homo sapiens, UniProt P31749); experiment: Protein-lipid binding assay (PIP-strips) with PH domain of Akt protein
T1 construct: His6 (C); made in house; host or cells: E. coli BL21 (DE3), pET28a vector
Procedure: E. coli BL21 (DE3) cells were transfected with a vector containing the PH domain of Akt protein, and the cells were cultured in 50 Ml of LB medium supplemented with 50 μg/Ml of kanamycin. The culture was performed at 37° C. for 8 hours. Upon completion of the culture, the cells were transferred into a 25° C. agitation incubator. The cells were cultured until OD600 reached 0.6 to 1.0, and then 1 mM IPTG (isopropyl-β-D-1-thiogalactopyranoside) was added thereto. 18 hours after the addition of IPTG, centrifugation was performed at 7,000×g at 4° C. for 10 minutes to obtain cells. Sonication equilibrium buffer (150 mM NaCl, 50 mM Tris-HCl, pH 7.6) was added to the obtained cells. The cells added with the sonication equilibrium buffer were lysed by sonication. The PH domain of Akt protein was purified from the cell lysate by […] using nickel-nitrilotriacetic acid and HiLoad Superdex-200 column (GE Healthcare life science, USA). The purity of the purified protein was examined by SDS-PAGE (sodium dodecyl sulfate polyacrylamide gel electrophoresis).
Particularly, the analysis was performed by using membrane-immobilized lipid strips (PIP-strips, Echelon Biosciences Inc., USA). […]

[5] = test system: CHO cells; experiment: Migration of mCherry-tagged PH or C2 domain to the cell membrane, fluorescence microscopy; format: cell-based
From the text: First, the PH domain of Akt1 protein or C2 domain of PKCβ protein was obtained by PCR using the primers consisting of the nucleotide sequences represented by […]. The obtained PCR product was cloned in pmCherry-C1 vector (Takara Clontech, Japan) by the conventional cloning method. CHO cells were transfected with the prepared vector by using lipofectamine according to the manufacturer's protocol. The transfected cells were selected by using blastidicin. Then, mCherry positive cells were confirmed by flow cytometry.
PMA at the concentration of 100 nM, ionomycin at the concentration of 10 μM or insulin at the concentration of 100 nM was added to the cells expressing the PH domain of Akt1 protein or the C2 domain of PKCβ protein and the location of the expressed protein was confirmed by fluorescence microscopy.

Molecule: CCCCCCCCCCCCCCCC(=O)OCC(COP(=O)(O)OC1C(O)C(O)C(OP(=O)(O)O)C(OP(=O)(O)O)C1O)OC(=O)CCCCCCCCCCCCCCC (stereo not drawn) [PI(3,4)P2, 1,2-dipalmotoyl-sn-glycero-3-phosphatidylinositol-3,4-triphosphate]
binding to calcium [1]: high affinity; also recorded: strong binding force

Molecule: CCCCCCCCCCCCCCCC(=O)OCC(COP(=O)(O)OC1C(O)C(OP(=O)(O)O)C(OP(=O)(O)O)C(OP(=O)(O)O)C1O)OC(=O)CCCCCCCCCCCCCCC (stereo not drawn) [PI(3,4,5)P3, 1,2-dipalmotoyl-sn-glycero-3-phosphatidylinositol-3,4,5-trisphosphate]
binding to calcium [1]: high affinity; also recorded: strong binding force

Molecule: CCCCCCCCCCCCCCCC(=O)OCC(COP(=O)(O)OC1C(O)C(O)C(OP(=O)(O)O)C(OP(=O)(O)O)C1O)OC(=O)CCCCCCCCCCCCCCC (stereo not drawn) [PI(4,5)P2, 1,2-dipalmotoyl-sn-glycero-3-phosphatidylinositol-4,5-trisphosphate]
binding to calcium [1]: high affinity; also recorded: strong binding force

Molecule: CCCCCCCCCCCCCC(=O)O[C@@H]1[C@@H](C)[C@@]2(O)[C@@H](C=C(CO)C[C@]3(O)C(=O)C(C)=C[C@@H]23)[C@@H]2C(C)(C)[C@]12OC(C)=O [PMA, phorbol myristate acetate]
phosphorylation of Akt protein [2]: significantly inhibited

Molecule: C[C@H](CCC(=O)O)C[C@H](C)C[C@H](C)C(=O)/C=C(\O)[C@H](C)C[C@H](C)C/C=C/[C@@H](C)[C@@H](O)[C@@H](C)[C@@H](O)C[C@@H]1CC[C@@](C)([C@H]2CC[C@@](C)([C@@H](C)O)O2)O1 [ionomycin]
phosphorylation of Akt protein [2]: significantly inhibited

Molecule: PTEN: phosphatase and tensin homolog, co-treated
Akt protein activity [3]: reduced

binding to PI(3,4)P2 or PI(3,4,5)P3 [4]: bound
B1: PH domain of Akt protein: PH domain of Akt1 protein (SEQ. ID. NO: 13) (protein)
chain: MSDVAIVKEGWLHKRGEYIKTWRPRYFLLKNDGTFIGYKERPQDVDQREAPLNNFSVAQCQLMKTERPRPNTFIIRCLQWTTVIERTFHVETPEEREEWTTAIQTVADGLKKQEEEEMDFRSGSPSDNSGAEEMEVSLAKPKHR
modifications: PH domain of Akt protein
migration to the cell membrane ([5]; addition of insulin 100 nM): ted to the cell membrane | migration to the cell membrane ([5]; increased intracellular calcium concentration (PMA 100 nM, ionomycin 10 μM)): not observed; also recorded: inhibited
